Measured values taken from the supplement of paper PMC11061612.

Legend:
Test in all cases: Bliss excess, mean over the matrix (fraction); higher = more synergy
[1] = system: AN3-CA (Endometrial Carcinoma)
Method in brief: (§1)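 Cell lines grown in DMEM/F12 or RPMI with 10% FBS were plated in 1536-well plates and held 24 hours at 37°C, 5% CO2 before 72 hours of exposure to two-drug dose matrices, with DMSO typically at 0.2%. CellTiter-Glo 2.0 luminescence gave viability, which was converted to inhibition. Vehicle wells were set to 0 and blank wells to 1. Combination Emax is the second-highest inhibition in the matrix, and Bliss excess is the observed combination effect minus the expected EA + EB − EA·EB, where EA and EB are the single-agent effects.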

[2] = system: AsPC-1 (Pancreatic Carcinoma)
Method in brief: as §1

[3] = system: Caov-3 (Ovarian Carcinoma)
Method in brief: as §1

[4] = system: HSC-3 (Oral Cavity Carcinoma)
Method in brief: as §1

HuO-3N1 (Osteosarcoma) = system: HuO-3N1 (Osteosarcoma)
Method in brief: as §1

[5] = system: JHH-1 (Hepatocellular Carcinoma)
Method in brief: as §1

KYM-1 (Rhabdomyosarcoma) = system: KYM-1 (Rhabdomyosarcoma)
Method in brief: as §1

[6] = system: KYSE-70 (Esophageal Squamous Cell Carcinoma)
Method in brief: as §1

[7] = system: NCI-H1155 (Non-Small Cell Lung Carcinoma)
Method in brief: as §1

[8] = system: NCI-H1755 (Lung Adenocarcinoma)
Method in brief: as §1

[9] = system: NKM-1 (Acute Myeloid Leukemia)
Method in brief: as §1

[10] = system: OV-90 (Ovarian Carcinoma)
Method in brief: as §1

[11] = system: OVTOKO (Ovarian Carcinoma)
Method in brief: as §1

[12] = system: PANC-02-03 (Pancreatic Carcinoma)
Method in brief: as §1

[13] = system: RMG-I (Ovarian Carcinoma)
Method in brief: as §1

[14] = system: RPMI-8866 (Chronic Myelogenous Leukemia)
Method in brief: as §1

RT4 (Bladder Carcinoma) = system: RT4 (Bladder Carcinoma)
Method in brief: as §1

[15] = system: SJRH30 (Rhabdomyosarcoma)
Method in brief: as §1

[16] = system: SK-MM-2 (Plasma Cell Myeloma)
Method in brief: as §1

[17] = system: SNU-175 (Colorectal Carcinoma)
Method in brief: as §1

Row | SMILES | Bliss excess [1] | Bliss excess [2] | Bliss excess [3] | Bliss excess [4] | Bliss excess (HuO-3N1 (Osteosarcoma)) | Bliss excess [5] | Bliss excess (KYM-1 (Rhabdomyosarcoma)) | Bliss excess [6] | Bliss excess [7] | Bliss excess [8] | Bliss excess [9] | Bliss excess [10] | Bliss excess [11] | Bliss excess [12] | Bliss excess [13] | Bliss excess [14] | Bliss excess (RT4 (Bladder Carcinoma)) | Bliss excess [15] | Bliss excess [16] | Bliss excess [17]
1 | CC1(C)CCC(CN2CCN(c3ccc(C(=O)NS(=O)(=O)c4ccc(NCC5CCOCC5)c([N+](=O)[O-])c4)c(Oc4cnc5[nH]ccc5c4)c3)CC2)=C(c2ccc(Cl)cc2)C1 [Venetoclax] + CN(C)CCCOc1ccc(-c2ccc3ncc4c(c3c2)n(C2CCOCC2)c(=O)n4C)cn1 [AZD0156] (first compound max 1 µM, 7x7, partner max 1 µM) | -0.06 | -0.1 | -0.0386 | 0.012 | -0.0235 | -0.042 | 0.013 | -0.0359 | -0.0214 | 0.0342 | -0.0963 | -0.041 | -0.086 | -0.0541 | -0.016 | -0.0408 | -0.0259 | 0.0084 | -0.0129 | -0.0511
2 | CN(C)CCCOc1ccc(-c2ccc3ncc4c(c3c2)n(C2CCOCC2)c(=O)n4C)cn1 [AZD0156] + C=CCn1c(=O)c2cnc(Nc3ccc(N4CCN(C)CC4)cc3)nc2n1-c1cccc(C(C)(C)O)n1 [AZD1775] (first compound max 1 µM, partner max 1 µM) | -0.0041 | -0.0179 | -0.0434 | -0.0534 | -0.0505 | -0.0501 | -0.0123 | -0.0531 | -0.0213 | -0.0462 | -0.0605 | -0.0335 | -0.0255 | -0.026 | -0.0545 | -0.0175 | -0.0136 | -0.0467 | 0.0058 | 0.0169
3 | CCc1c2c(nc3ccc(O)cc13)-c1cc3c(c(=O)n1C2)COC(=O)[C@]3(O)CC [SN-38] + CN(C)CCCOc1ccc(-c2ccc3ncc4c(c3c2)n(C2CCOCC2)c(=O)n4C)cn1 [AZD0156] (first compound max 0.3 µM, 7x7, partner max 1 µM) | -0.0446 | -0.029 | 0.0175 | -0.0063 | -0.0592 | -0.018 | 0.0465 | 0.0487 | 0.0268 | 0.0829 | 0.033 | -0.012 | -0.0523 | -0.007 | 0.018 | 0.0969 | -0.0184 | 0.0722 | 0.0076 | 0.0229
4 | Cc1cc2ncnn2cc1Nc1ncc2c(n1)n(C1CCOCC1)c(=O)n2C [AZD7648] + O=C(c1cc(Cc2n[nH]c(=O)c3ccccc23)ccc1F)N1CCN(C(=O)C2CC2)CC1 [Olaparib] (first compound max 10 µM, 7x7, partner max 10 µM) | -0.0738 | -0.0567 | -0.0336 | -0.0102 | -0.031 | -0.0621 | -0.0078 | -0.0528 | -0.0235 | -0.0464 | 0.0104 | -0.0419 | -0.0433 | -0.0411 | -0.0685 | 0.0298 | 0.0016 | -0.0148 | -0.0204 | -0.025
5 | CC1(C)CCC(CN2CCN(c3ccc(C(=O)NS(=O)(=O)c4ccc(NCC5CCOCC5)c([N+](=O)[O-])c4)c(Oc4cnc5[nH]ccc5c4)c3)CC2)=C(c2ccc(Cl)cc2)C1 [Venetoclax] + Cc1cc2ncnn2cc1Nc1ncc2c(n1)n(C1CCOCC1)c(=O)n2C [AZD7648] (first compound max 1 µM, 7x7, partner max 10 µM) | -0.0108 | -0.0803 | -0.159 | 0.0185 | 0.044 | -0.0374 | -0.0074 | -0.0003 | -0.041 | -0.025 | 0.0323 | -0.0639 | -0.0518 | -0.0646 | -0.0277 | -0.026 | -0.0115 | 0.0112 | 0.0145 | -0.0327
6 | COc1cccc(OCCCN)c1-c1cc(Nc2cnc(C#N)cn2)n[nH]1 [Prexasertib] + CCc1c2c(nc3ccc(O)cc13)-c1cc3c(c(=O)n1C2)COC(=O)[C@]3(O)CC [SN-38] (first compound max 1 µM, 7x7, partner max 0.3 µM) | 0.0972 | -0.0333 | -0.0539 | -0.0455 | -0.0105 | -0.11 | -0.0634 | 0.0907 | -0.0161 | -0.0057 | -0.0554 | -0.0591 | -0.0192 | 0.0098 | -0.102 | 0.0104 | -0.0055 | 0.012 | -0.0714 | -0.0298
7 | COc1cc2c(cc1OCCCCCOc1cc3c(cc1OC)C(=O)N1C=C(C)C[C@H]1C=N3)N=C[C@@H]1CC(C)=CN1C2=O [SG3199] + O=C(c1cc(Cc2n[nH]c(=O)c3ccccc23)ccc1F)N1CCN(C(=O)C2CC2)CC1 [Olaparib] (first compound max 0.001 µM, 7x7, partner max 10 µM) | -0.0292 | -0.0535 | -0.0475 | -0.0067 | -0.0446 | -0.0059 | -0.0201 | -0.0227 | 0.0119 | -0.0207 | -0.0362 | -0.0422 | -0.0476 | -0.0487 | -0.0599 | -0.0032 | -0.0164 | 0.0009 | -0.0179 | -0.0317
8 | Cc1c2c(nn1C)CSCc1cc(n(C)n1)CSc1cc(c3ccccc3c1)OCCCc1c(C(=O)O)n(C)c3c-2c(Cl)ccc13 [AZD5991] + C=CCn1c(=O)c2cnc(Nc3ccc(N4CCN(C)CC4)cc3)nc2n1-c1cccc(C(C)(C)O)n1 [AZD1775] (first compound max 1 µM, partner max 1 µM) | -0.0512 | 0.0293 | -0.0274 | 0.0184 | 0.006 | 0.03 | 0.0583 | 0.015 | 0.0707 | 0.0006 | -0.0519 | -0.0929 | 0.0474 | -0.0195 | -0.0369 | -0.0441 | 0.0351 | -0.0362 | -0.112 | -0.0185
9 | CN(CCO)CC[C@H](CSc1ccccc1)Nc1ccc(S(=O)(=O)NC(=O)c2ccc(N3CCC([C@@H](O)c4ccccc4-c4ccc(Cl)cc4)CC3)cc2)cc1S(=O)(=O)C(F)(F)F [AZD4320] + Cc1cc2ncnn2cc1Nc1ncc2c(n1)n(C1CCOCC1)c(=O)n2C [AZD7648] (first compound max 1 µM, 7x7, partner max 10 µM) | -0.0057 | -0.0575 | -0.0199 | -0.0051 | 0.0015 | -0.0576 | -0.018 | -0.0225 | 0.017 | -0.0279 | 0.0153 | -0.055 | -0.0393 | -0.0568 | -0.0676 | 0.0654 | -0.004 | -0.0072 | -0.0268 | -0.006
10 | Cc1cc2ncnn2cc1Nc1ncc2c(n1)n(C1CCOCC1)c(=O)n2C [AZD7648] + C=CCn1c(=O)c2cnc(Nc3ccc(N4CCN(C)CC4)cc3)nc2n1-c1cccc(C(C)(C)O)n1 [AZD1775] (first compound max 10 µM, partner max 1 µM) | -0.0091 | 0.0558 | -0.0869 | -0.0488 | -0.0205 | 0.001 | 0.0302 | 0.0184 | 0.033 | 0.0084 | -0.0556 | -0.0163 | 0.0188 | 0.0306 | 0.02 | -0.0616 | 0.0218 | 0.0139 | -0.0214 | -0.0043
11 | COc1cccc(OCCCN)c1-c1cc(Nc2cnc(C#N)cn2)n[nH]1 [Prexasertib] + O=C(c1cc(Cc2n[nH]c(=O)c3ccccc23)ccc1F)N1CCN(C(=O)C2CC2)CC1 [Olaparib] (first compound max 1 µM, 7x7, partner max 10 µM) | -0.0523 | -0.0956 | -0.0138 | -0.0093 | -0.0658 | -0.0416 | -0.0609 | -0.0248 | -0.0309 | -0.0582 | -0.0706 | -0.0191 | -0.035 | -0.0932 | -0.124 | 0.0028 | 0.0044 | -0.104 | -0.011 | 0.0762
12 | COc1cccc(OCCCN)c1-c1cc(Nc2cnc(C#N)cn2)n[nH]1 [Prexasertib] + CN(C)CCCOc1ccc(-c2ccc3ncc4c(c3c2)n(C2CCOCC2)c(=O)n4C)cn1 [AZD0156] (first compound max 1 µM, 7x7, partner max 1 µM) | -0.0442 | 0.0303 | -0.0134 | -0.0322 | 0.0092 | 0.0785 | 0.0147 | -0.0233 | -0.0753 | -0.011 | -0.0165 | -0.035 | 0.0594 | -0.0009 | -0.04 | -0.009 | 0.0482 | -0.0242 | -0.0392 | 0.0462
13 | CC1(C)CCC(CN2CCN(c3ccc(C(=O)NS(=O)(=O)c4ccc(NCC5CCOCC5)c([N+](=O)[O-])c4)c(Oc4cnc5[nH]ccc5c4)c3)CC2)=C(c2ccc(Cl)cc2)C1 [Venetoclax] + Cn1cnc2c(F)c(Nc3ccc(Br)cc3Cl)c(C(=O)NOCCO)cc21 [Selumetinib] (first compound max 1 µM, 7x7, partner max 3 µM) | -0.0076 | -0.0748 | -0.0295 | -0.0043 | -0.011 | -0.0588 | -0.003 | 0.012 | -0.0317 | 0.0328 | 0.0456 | -0.0345 | -0.0544 | -0.0386 | -0.0727 | -0.057 | -0.0521 | -0.0199 | 0.0187 | -0.0157
14 | CC1(C)CCC(CN2CCN(c3ccc(C(=O)NS(=O)(=O)c4ccc(NCC5CCOCC5)c([N+](=O)[O-])c4)c(Oc4cnc5[nH]ccc5c4)c3)CC2)=C(c2ccc(Cl)cc2)C1 [Venetoclax] + C1CN(CCC1(C(=O)N[C@@H](CCO)C2=CC=C(C=C2)Cl)N)C3=NC=NC4=C3C=CN4 [Capivasertib] (first compound max 1 µM, 7x7, partner max 3 µM) | 0.0482 | -0.088 | -0.0458 | -0.0501 | -0.0347 | -0.0721 | -0.0269 | -0.0102 | -0.0482 | -0.034 | 0.0228 | -0.0796 | -0.0546 | -0.0742 | -0.0823 | -0.0224 | -0.0469 | -0.0008 | -0.0449 | -0.06
